According to patent publication US9512142B2, “Tricyclic triazolic compounds” (LABORATORIOS DEL DR. ESTEVE S.A., priority 2013, dated 2016):
Where two headings read alike, the source gives them in different places.

Legend:
Kinetic solubility = assay type: physicochemical; details: kinetic from dmso stock, buffered aqueous solution at pH=7.4, 10 μL of 10 mM DMSO solution in 1 mL, stirred 4 hours, supernatant by liquid chromatography, read-out: Kin. Solub.
Method: To a buffered aqueous solution at pH=7.4 (1 mL), a 10 mM DMSO solution of the test compound (10 μL) was added and the mixture stirred for 4 hours. After centrifugation, the compound concentration in the supernatant was determined by liquid chromatography by fitting in a calibration curve of the compound.

human sigma 1 receptor = molecular target: T1, human sigma 1 receptor (Homo sapiens, UniProt Q99720); experiment: Human sigma 1 receptor radioligand assay ([3H](+)-pentazocine, transfected HEK-293 membranes); assay type: binding; details: 5 nM [3H](+)-pentazocine, transfected HEK-293 membranes, 37° C., 120 minutes; read-out: Ki
T1 construct: expressed in transfected cells; host or cells: HEK-293
T1 sequence (Q99720 whole entry): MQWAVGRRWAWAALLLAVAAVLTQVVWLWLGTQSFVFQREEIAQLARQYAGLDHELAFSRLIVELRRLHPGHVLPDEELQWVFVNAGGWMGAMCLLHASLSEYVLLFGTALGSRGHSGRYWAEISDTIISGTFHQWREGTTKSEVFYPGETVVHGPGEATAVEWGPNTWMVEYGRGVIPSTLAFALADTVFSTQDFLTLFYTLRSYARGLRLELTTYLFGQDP
Method: Human Sigma 1 Receptor Radioligand Assay
The assay was carried out with 7 μg of membrane suspension, 5 nM of [^3H](+)-pentazocine in either absence or presence of either buffer or 10 μM Haloperidol for total and non-specific binding, respectively. Binding buffer contained Tris-HCl 50 mM at pH 8. Plates were incubated at 37° C. for 120 minutes. After the incubation period, the reaction mix was then transferred to MultiScreen HTS, FC plates (Millipore), filtered and plates were washed 3 times with ice-cold 10 mM Tris-HCL (pH7.4). Filters were dried and counted at approximately 40% efficiency in a MicroBeta scintillation counter (Perkin-Elmer) using EcoScint liquid scintillation cocktail.

[1] = buffered aqueous solution, pH 7.4, aqueous buffer

Compound	solubility at 4 h (Kinetic solubility; aqueous buffer) [µM]	Ki (human sigma 1 receptor) [µM]	solubility at 4 h (Kinetic solubility; [1]) [µM]
Cl.FC(F)(F)c1ccc(-c2nnn3c2CO[C@H]2CN(C4CCOCC4)C[C@@H]23)c(Cl)c1 [Example 55, (5aS,8aS)-3-(2-chloro-4-(trifluoromethyl)phenyl)-7-(tetrahydro-2H-pyran-4-yl)-4,5a,6,7,8,8a-hexahydropyrrolo[3,4-b][1,2,3]triazolo[1,5-d][1,4]oxazine hydrochloride]	> 10	0.0233	
Cl.Clc1ccc(-c2nnn3c2CO[C@H]2CN(C[C@@H]4CCOC4)C[C@@H]23)c(Cl)c1 [Example 56, (5aS,8aS)-3-(2,4-dichlorophenyl)-7-(((S)-tetrahydrofuran-3-yl)methyl)-4,5a,6,7,8,8a-hexahydropyrrolo[3,4-b][1,2,3]triazolo[1,5-d][1,4]oxazine hydrochloride]		0.0227	> 10
Cl.Clc1ccc(-c2nnn3c2CO[C@@H]2CN(C[C@H]4CCOC4)C[C@H]23)c(Cl)c1 [Example 57, (5aR,8aR)-3-(2,4-dichlorophenyl)-7-(((R)-tetrahydrofuran-3-yl)methyl)-4,5a,6,7,8,8a-hexahydropyrrolo[3,4-b][1,2,3]triazolo[1,5-d][1,4]oxazine hydrochloride]		0.195	> 10
Cl.Clc1ccc(-c2nnn3c2CO[C@H]2CN(C[C@H]4CCOC4)C[C@@H]23)c(Cl)c1 [Example 58, (5aS,8aS)-3-(2,4-dichlorophenyl)-7-(((R)-tetrahydrofuran-3-yl)methyl)-4,5a,6,7,8,8a-hexahydropyrrolo[3,4-b][1,2,3]triazolo[1,5-d][1,4]oxazine hydrochloride]		0.0254	> 10
Cl.Clc1ccc(-c2nnn3c2CO[C@@H]2CN(C[C@@H]4CCOC4)C[C@H]23)c(Cl)c1 [Example 59, (5aR,8aR)-3-(2,4-dichlorophenyl)-7-(((S)-tetrahydrofuran-3-yl)methyl)-4,5a,6,7,8,8a-hexahydropyrrolo[3,4-b][1,2,3]triazolo[1,5-d][1,4]oxazine hydrochloride]		0.181	> 10
Cc1occc1CN1C[C@@H]2[C@@H](C1)OCc1c(-c3ccc(F)cc3F)nnn12.Cl [Example 60, (5aR,8aR)-3-(2,4-difluorophenyl)-7-((2-methylfuran-3-yl)methyl)-4,5a,6,7,8,8a-hexahydropyrrolo[3,4-b][1,2,3]triazolo[1,5-d][1,4]oxazine hydrochloride]		0.102	> 10
Cc1occc1CN1C[C@@H]2OCc3c(-c4ccc(F)cc4F)nnn3[C@H]2C1.Cl [Example 61, (5aS,8aS)-3-(2,4-difluorophenyl)-7-((2-methylfuran-3-yl)methyl)-4,5a,6,7,8,8a-hexahydropyrrolo[3,4-b][1,2,3]triazolo[1,5-d][1,4]oxazine hydrochloride]		0.0737	> 10
Cl.Fc1ccc(-c2nnn3c2CO[C@H]2CN(Cc4ccoc4)C[C@@H]23)c(F)c1 [Example 62, (5aS,8aS)-3-(2,4-difluorophenyl)-7-(furan-3-ylmethyl)-4,5a,6,7,8,8a-hexahydropyrrolo[3,4-b][1,2,3]triazolo[1,5-d][1,4]oxazine hydrochloride]		0.0392	> 10
Cl.Fc1ccc(-c2nnn3c2CO[C@@H]2CN(Cc4ccoc4)C[C@H]23)c(F)c1 [Example 63, (5aR,8aR)-3-(2,4-difluorophenyl)-7-(furan-3-ylmethyl)-4,5a,6,7,8,8a-hexahydropyrrolo[3,4-b][1,2,3]triazolo[1,5-d][1,4]oxazine hydrochloride]		0.0377	> 10
Cl.Cn1nccc1-c1nnn2c1CO[C@@H]1CN(Cc3ccc(F)cc3)C[C@H]12 [Example 66, (5aR,8aR)-7-(4-fluorobenzyl)-3-(1-methyl-1H-pyrazol-5-yl)-4,5a,6,7,8,8a-hexahydropyrrolo[3,4-b][1,2,3]triazolo[1,5-d][1,4]oxazine hydrochloride]	> 10	0.138	
